Patent publication US20260224496A1, “HIGHLY POROUS GAS-BLOWN HYDROGELS FOR DIRECT CELL ENCAPSULATION WITH HIGH CELL VIABILITY” (Syracuse University, priority 2023, published 2026)

What was measured:
[1] = in vitro
Experimental: (§1) Using IC50 values as a concentration ceiling, the cytocompatibility of citric acid, NaHCO3, and Irgacure 2959 was measured with adipose-derived MSCs at concentrations of 0.25, 1, and 0.2% (w/v) in DMEM, respectively. MSCs were seeded in 24 well plates at 2,500 cells per well. […] After incubation, cells were treated with a resazurin assay for 2 hours for cytocompatibility measurements or with Live/Dead assay stains and imaging for morphology analysis.

[2] = tested on: 3T3 mouse fibroblasts; test: IC50 values of foaming components, resazurin assay (Alamar Blue); assay type: cell-based; conditions: 20-minute exposure
Experimental: Cells were cultured in DMEM with 10% fetal bovine serum (FBS) and 1% penicillin-streptomycin (pen-strep) at 37° C. with 5% CO2. Cells were trypsinized and seeded at a density of 5,000 cells per well in a 96-well plate. […] After a 20-minute exposure, solutions were removed, and cell viability was measured compared to an untreated control using a resazurin assay (Alamar Blue) read by a plate reader. Cell viability was calculated as: […]
The blank was a well with media only and no cells.

[3] = tested on: adipose-derived MSCs; test: in vitro
Experimental: as §1

O=C(O)CC(O)(CC(=O)O)C(=O)O [Citric acid, citric acid]
viability at 1 h, 0.25 % (w/v) [1]: 51%
viability at 24 h, 0.25 % (w/v) [1]: 21%
IC50 [2]: 0.23 wt %

CC(C)(O)C(=O)c1ccc(OCCO)cc1 [Irgacure 2959]
MSC viability after 24-hour recovery [3]: 99%
MSC viability after 1 hour of exposure [3]: 99%

O=C([O-])O.[Na+] [NaHCO3, sodium bicarbonate]
MSC viability after 24-hour recovery ([3]; citric acid 0.25%, Irgacure 2959 0.2%, NaHCO3 1% (w/v) in DMEM, 24-hour recovery): 95%
MSC viability after 1 hour of exposure ([3]; citric acid 0.25%, Irgacure 2959 0.2%, NaHCO3 1% (w/v) in DMEM, 1 hour exposure): 98%
